Publication PMC9230201, “Sustained Consumption of a Decaffeinated Green Coffee Nutraceutical Has Limited Effects on Phenolic Metabolism and Bioavailability in Overweight/Obese Subjects” (Nutrients, 2022)

Legend:
[1] = Urinary excretion of phenolic metabolites after intake of the GCPE nutraceutical; conditions: for Cumulative urinary excretion, Total 0–24 h / Urinary excretion: urine; for Cumulative urinary excretion, Total 0–24 h: mean ± SEM, n = 9
[2] = Plasma pharmacokinetics of phenolic metabolites after intake of the GCPE nutraceutical (LC-MS-QToF); conditions: for Cmax: mean ± SEM, n = 9; for AUC(0-t) / Tmax: 300 mg hydroxycinnamic acids; for AUC(0-t): AUC0–24h; for Tmax: Tmax (h) or Range
[3] = Fecal excretion of phenolic metabolites after intake of the GCPE nutraceutical; conditions: feces
Procedure: Participants attended the Human Nutrition Unit (HNU) at the Institute of Food Science, Technology and Nutrition (ICTAN-CSIC) on two consecutive days at the beginning of the intervention (week 0) and also on two consecutive days at the end of the study, after consuming daily two doses of the GCPE nutraceutical, providing 600 mg/d phenols, during two months (week 8). […] A licensed health care professional placed an intravenous catheter in the subjects′ nondominant arm and collected a fasting blood sample (baseline, 0 h). Then, subjects drank the soluble GCPE nutraceutical dissolved in 200 mL of water. […] On the sampling days, volunteers remained at the HNU, where a (poly)phenol-free diet was provided. Half an hour after consuming the nutraceutical, volunteers ate a breakfast consisting of ham, cheese, white bread, and a yogurt. Lunch (paella, bread, and yogurt) and an afternoon snack (muffin and yogurt) were eaten 5 and 9 h, respectively, after consuming the nutraceutical. Water and isotonic beverages were freely available. […] The same protocol was followed during visits at the end of the 8-week intervention. On each occasion, two days before each visit to the HNU, subjects consumed a low (poly)phenol diet free of foods containing hydroxycinnamates such as coffee, herbal teas, red wine, artichokes, whole grain cereals, vegetables, fruits and fruit juices, and dried fruits. Only banana, watermelon, cantaloupes, and potatoes were allowed.
Blood samples were immediately centrifuged (10 min, 3000 rpm, 4 °C) to obtain plasma. […] All biological samples were stored at −80 °C until analysis.
To extract plasma metabolites, 10 µL of 50% (v/v) aqueous formic acid, and 900 µL cold acetonitrile containing 50 µL of 10% (w/v) ascorbic acid were added to 400 µL defrosted plasma. Samples were vortexed and centrifuged (14,000 rpm, 10 min, 4 °C), repeating the extraction and combining the two supernatants, which were reduced to dryness under nitrogen [13]. Dried samples were resuspended in 150 µL of 0.1% aqueous formic acid (containing 10% acetonitrile acidified with 0.1% formic acid), centrifuged (15 min, 14,000 rpm, 4 °C), and the supernatant collected. Urine samples were diluted 1:1 with Milli-Q water and centrifuged (14,000 rpm, 20 min, 4 °C) prior to analysis. Phosphate-buffered saline (3 mL) was added to a representative 300 mg sample of thawed feces, homogenized in an ultrasound bath during 10 min, centrifuged (14,000 rpm, 20 min, 4 °C), and the supernatants collected.
Mobile phase A was 0.1% formic acid in Milli-Q water, and mobile phase B was acetonitrile containing 0.1% formic acid at a 0.3 mL/min flow rate. […] Metabolites were identified based on their retention time using authentic standards when possible. […] Urine concentration of excreted metabolites was normalized to the total volume excreted in each studied interval.
Plasma (30 µL), urine (5 µL) and fecal extracts (5 µL) were filtered through 0.45 µm
cellulose-acetate membrane filters and injected into an Agilent 1200 series LC system
ESI-Jet Stream Technology (Agilent Technologies). A reverse-phase Ascentis Express
C18 (15 cm x 3 mm, 2.7 µm) column (Sigma-Aldrich Quimica, Madrid), preceded by a
phase A was 0.1% formic acid in Milli-Q water, and mobile phase B was acetonitrile
containing 0.1% formic acid at a 0.3 mL/min flow rate. The gradient started with 10% B
at 0 min, 30% B at 10 min, 40% B at 15 min, reaching 50% B at 20 min. The starting
gradient was then re-established in 2 min and maintained for 8 min to re-equilibrate the

[4] = week 0, GCPE nutraceutical with 300 mg hydroxycinnamic acids
[5] = week 0, first peak where biphasic
[6] = week 8, GCPE nutraceutical with 300 mg hydroxycinnamic acids
[7] = week 8, first peak where biphasic

Cumulative urinary excretion, Total 0–24 h ([1]; week 0)	Cumulative urinary excretion, Total 0–24 h ([1]; week 8)	Amount excreted in urine, 0- 3 h ([1]; week 0, interval 0–3 h)	Amount excreted in urine, 3-6 h ([1]; week 0, interval 3–6 h)	Amount excreted in urine, 6-9 h ([1]; week 0, interval 6–9 h)	Amount excreted in urine, 9-11 h ([1]; week 0, interval 9–11 h)	Amount excreted in urine, 11-24 h ([1]; week 0, interval 11–24 h)	Amount excreted in urine, 0- 3 h ([1]; week 8, interval 0–3 h)	Amount excreted in urine, 3-6 h ([1]; week 8, interval 3–6 h)	Amount excreted in urine, 6-9 h ([1]; week 8, interval 6–9 h)	Amount excreted in urine, 9-11 h ([1]; week 8, interval 9–11 h)	Amount excreted in urine, 11-24 h ([1]; week 8, interval 11–24 h)	Amount of fecal metabolite excreted at 0 h ([3]; week 0, mean ± SEM, n = 9)	Amount of fecal metabolite excreted at 0 h ([3]; week 8)	Amount of fecal metabolite excreted at 24 h ([3]; week 0)	Amount of fecal metabolite excreted at 24 h ([3]; week 8)	Structure (SMILES)	AUC0–24h ([2]; week 0)	Cmax [2, 4]	Tmax (h) or Range [2, 5]	AUC0–24h ([2]; week 8)	also measured
1.5 ± 0.2 µmol	1.5 ± 0.2 µmol	0.8 ± 0.2 µmol	0.5 ± 0.1 µmol	0.13 ± 0.04 µmol	0.03 ± 0.01 µmol	0.09 ± 0.01 µmol	0.8 ± 0.1 µmol	0.39 ± 0.07 µmol	0.2 ± 0.04 µmol	0.05 ± 0.03 µmol	0.08 ± 0.02 µmol	0.0009 ± 0.0007 µmol/g	0.002 ± 0.002 µmol/g	0.002 ± 0.001 µmol/g	0.0003 ± 0.0003 µmol/g	COc1cc(/C=C/C(=O)O[C@@H]2C[C@@](O)(C(=O)O)C[C@@H](O)[C@@H]2O)ccc1O [5-Feruloylquinic acid]	0.09 ± 0.02 µM/min	32 ± 4 nM	0.9 ± 0.1 h	0.08 ± 0.02 µM/min	Cmax [2, 6]: 34 ± 5 nM; Tmax (h) or Range [2, 7]: 0.9 ± 0.1 h
16 ± 2 µmol	31 ± 5 µmol	0.5 ± 0.1 µmol	0.37 ± 0.09 µmol	2.3 ± 0.8 µmol	2.7 ± 0.6 µmol	7 ± 1 µmol	1 ± 0.4 µmol	1.4 ± 0.4 µmol	3.8 ± 0.9 µmol	3.1 ± 0.8 µmol	6 ± 2 µmol	0.011 ± 0.007 µmol/g	0.005 ± 0.002 µmol/g	0.008 ± 0.006 µmol/g	0.0001 ± 0.0001 µmol/g	O=C(O)CCc1ccc(O)c(O)c1 [DHCA, 3-(3′,4′-Dihydroxyphenyl)propanoic acid]	–	–	–	–	Urinary excretion ([1]; week 0): 16 µmol/24 h; Urinary excretion ([1]; week 8): 31 µmol/24 h; Amount excreted in urine, TOTAL ([1]; week 0, Table S5 total): 16 ± 2 µmol; Amount excreted in urine, 0 h ([1]; week 8, 0 h (before intake on sampling day)): 15 ± 4 µmol; Amount excreted in urine, TOTAL ([1]; week 8, Table S6 total): 31 ± 5 µmol; AUC(0-t) ([2]; human, oral, week 0): 2 ± 0.6 µM·h; AUC(0-t) ([2]; human, oral, week 8): 2.1 ± 0.5 µM·h; Tmax ([2]; human, oral, week 0, first peak where biphasic): 10.2 ± 0.3 h; Tmax ([2]; human, oral, week 8, first peak where biphasic): 9.4 ± 0.5 h; Cmax ([2]; human, oral, 300 mg, Cmax, week 0, GCPE nutraceutical with 300 mg hydroxycinnamic acids): 220 ± 60 nM; Cmax ([2]; human, oral, 300 mg, Cmax, week 8, GCPE nutraceutical with 300 mg hydroxycinnamic acids): 220 ± 50 nM

Structure (SMILES)	Cumulative urinary excretion, Total 0–24 h ([1]; week 0)	Cumulative urinary excretion, Total 0–24 h ([1]; week 8)	Amount excreted in urine, 0- 3 h ([1]; week 0, interval 0–3 h)	Amount excreted in urine, 3-6 h ([1]; week 0, interval 3–6 h)	Amount excreted in urine, 6-9 h ([1]; week 0, interval 6–9 h)	Amount excreted in urine, 9-11 h ([1]; week 0, interval 9–11 h)	Amount excreted in urine, 11-24 h ([1]; week 0, interval 11–24 h)	Amount excreted in urine, 0- 3 h ([1]; week 8, interval 0–3 h)	Amount excreted in urine, 3-6 h ([1]; week 8, interval 3–6 h)	Amount excreted in urine, 6-9 h ([1]; week 8, interval 6–9 h)	Amount excreted in urine, 9-11 h ([1]; week 8, interval 9–11 h)	Amount excreted in urine, 11-24 h ([1]; week 8, interval 11–24 h)	Amount of fecal metabolite excreted at 0 h ([3]; week 0, mean ± SEM, n = 9)	Amount of fecal metabolite excreted at 0 h ([3]; week 8)	Amount of fecal metabolite excreted at 24 h ([3]; week 0)	Amount of fecal metabolite excreted at 24 h ([3]; week 8)	AUC0–24h ([2]; week 0)	Cmax [2, 4]	Tmax (h) or Range [2, 5]	AUC0–24h ([2]; week 8)	also measured
COc1cc(CC(=O)O)ccc1O [4′-Hydroxy-3′-methoxyphenylacetic acid]	13.2 ± 0.9 µmol	12 ± 1 µmol	1.3 ± 0.2 µmol	0.9 ± 0.2 µmol	0.9 ± 0.2 µmol	0.7 ± 0.1 µmol	3.6 ± 0.3 µmol	1.5 ± 0.2 µmol	0.8 ± 0.1 µmol	1 ± 0.2 µmol	0.68 ± 0.15 µmol	2.9 ± 0.7 µmol	0.007 ± 0.005 µmol/g	0.0006 ± 0.0006 µmol/g	0.02 ± 0.01 µmol/g	0.003 ± 0.003 µmol/g	1.4 ± 0.9 µM/min	140 ± 60 nM	7 ± 4 h	1.5 ± 0.8 µM/min	Cmax [2, 6]: 120 ± 50 nM; Tmax (h) or Range [2, 7]: 4 ± 3 h
